Results reported in US9650674B2, “Nucleic acid probes and methods of using the same” (Board of Trustees University of Arkansas, priority 2012, dated 2017).
{Cy5.5} = Cy5.5 cyanine dye label

Tests used:
[1] = Alkaline denaturing of probes, kinetic fluorescence; format: physicochemical; settings: alkaline buffer
Protocol: Lastly, the probes' integrity was tested by alkaline denaturing. The probes were treated with alkaline buffer and kinetic detection of the fluorescence was performed. […] AB259.1, AB259.3 and AB259.5 gained 40%, 81%, and 85% of fluorescence, respectively.
All cell-free experiments were performed using the Bio-Tek Synergy 5 fluorescent plate reader. Before experiments, optimal excitation and emission wavelengths were determined. For this, excitation and emission were scanned in the ranges of 600-680 nm and 690-705 nm, respectively. The optimal excitation/emission was determined to be 665/703 nm. All kinetic and endpoint measurements were done in a total volume of 100 μl at 37° C. Unless stated otherwise, DNA substrate was used in final concentration 0.5 μM reconstituted in endonuclease activity assay (EAA) buffer (2 mM CaCl2, 5 mM MgCl2, 10 mM Tris-HCl, pH 7.4) in a 96-well plate. After measurement of starting fluorescence, DNase I or tested material (diluted 1:20 urine or 1:100 serum) were added to the reconstituted probe, rapidly mixed and fluorescence was monitored for up to 60 min with 30-sec intervals. In some instances, EDTA (final concentration 200 μM) or NaOH (50 mM) was added to terminate the reaction. For the experiments that involved assessment of fluorescence after DNA denaturing, probes were tested in Cepheid real-time PCR system using Cy5 setting (Sunnyvale, Calif.).

[2] = system: NRK-52E cells; experiment: Intracellular endonuclease activity in cultured cells, time-lapse microscopy; format: cell-based, rat; settings: AB259.3/Lipofectamine LTX complexes
Protocol: To test whether AB259.3 probe may be delivered intracellularly and thus be used as an indicator of endonuclease activity in live cells, NRK-52E cells were transfected with of AB259.3/Lipofectamine LTX complexes and imaged by time-lapse epifluorescence microscopy every 10 min for 8 hours. A 2.5-3 times increased fluorescence reached plateau in 1 hour after transfection and the cells retained fluorescent dye for the duration of experiment (FIG. 4A). To induce activity of endonucleases, cells were treated with cisplatin or camptothecin and imaged by time-lapse microscopy for Cy5.5 fluorescence. […] Therefore, it was concluded that AB259.3 can be delivered and used for intracellular monitoring of endonuclease activity in live cells. To further determine whether AB259.3 probe can be used in other cell lines, several of them were tested (FIG. 4D). […] It was then determined whether the probe without the loop would be consumed by NRK-52E cells equally to the original loop probe. […] Finally, PCR was used to determine whether the DNA part (as opposed to the fluorophores) of the probes enters the cells in vivo and in vitro.
Rat proximal tubular epithelial NRK-52E cells were used to test the ability of AB259.3 probe to measure endonuclease activity. The cells were seeded in a 24-well plate at 50,000 cells per well in complete DMEM medium supplemented with 10% fetal bovine serum. Cells were transfected with the AB259.3 probe using Lipofectamin LTX and then subjected to spinning disk confocal fluorescent time-lapse microscopy in 628/40-692/40 spectrum every 10 min for 8 hours using Olympus IX-81 image system equipped with Hamamatsu ORCA-ER camera and LiveCell microenvironmental control chamber (Pathology Devices Inc., Westminster, Md.). In separate experiment, cells were treated with either 25 μM cisplatin or 50 μM camptothecin for 8 hours, followed by 1-hour transfection with AB259.3 probe and 8-hour time-lapse imaging session with 10-min intervals using the same microscopy system.

[3] = system: wild-type (WT) mouse kidney cryosections; experiment: Endonuclease activity ex vivo in kidney cryosections; settings: 5 μM probe, EAA buffer, 37° C.
Protocol: Next it was examined whether AB259.3 probe can be used for measurement of endonuclease activity in tissue sections. Kidneys were used because they are known for high activity of DNase I (Ca/Mg-dependent endonuclease). Freshly prepared 10 μm thick cryosections of wild-type (WT) mouse kidney were exposed with 5 μM AB259.3 probe in presence of EAA buffer at 37° C. and time-lapse imaged for 10 min with 1-min intervals.
Specimens of kidney, liver, spleen and testis tissues were removed from euthanized mice, immersed in OCT medium, rapidly frozen by Fisher Freeze-it and kept on dry ice for no longer than 1 hour prior slicing. Tissue cryosections (8-μm thick) were prepared using the Microm HM 505E cryotome, placed to the Fisher Plus slides and immediately exposed with 0.5 μM AB259.3 probe diluted in EAA buffer. In control samples, applied probe contained EAA buffer supplemented with 200 μM EDTA. Images were taken in 628/40-692/40 spectrum every 30 sec for 10 min in 10 random XY coordinates. Three sections from each specimen were analyzed separately. Maximal velocity of increasing fluorescence was averaged for each section.

[4] = system: WT and DNase I KO mice; experiment: Cy5.5 fluorescence in organs isolated after intravenous probe injection (Xenogen-IVIS); format: in vivo, mouse; settings: 50 nmol/kg intravenous, 1 or 3 hours after injection; FIG. 6
Protocol: In the next set of experiments, it was tested whether AB259.3 probe is suitable for in vivo measurement of DNase I and endonuclease activity in internal organs. For this, WT and DNase I KO mice were subjected to intravenous administration of AB259.3 probe (50 nmol/kg). The organs including brain, heart, lung, muscle, bone (femur), liver, pancreas, salivary gland, jejunum, spleen, kidney and testicles were collected in 1 or 3 hours after injection and measured for Cy5.5 fluorescence using a Xenogen-IVIS instrument. […] Kidneys, pancreas, salivary glands and lungs were among those that had the most prominent relative increase of Cy5.5 fluorescence in WT mice with markedly lower level of fluorescence in DNase I KO mice. Despite highest absolute fluorescence values in gut and liver, relative gain of fluorescence in these organs was quite modest due to the high background autofluorescence.
Kidney ischemia-reperfusion was performed as previously reported. […] The liposomes were prepared as described previously.

[5] = system: WT mice; experiment: Histological distribution of probe in kidneys; format: in vivo, mouse; settings: 50 nmol/kg intravenous
Protocol: It was assessed whether AB259.3 probe is specifically accumulated in any renal compartments or its accumulation in the kidney is simply due to the excretion with urine. For this, WT mice were administered intravenously with 50 nmol/kg of AB259.3 probe and kidneys were collected in 1 or 3 hours, frozen, cryosectioned and examined under fluorescent microscope in 628/40-692/40 spectrum. […] Morphologically, fluorescence was detected mainly in membranous parts of the epithelial cells, such as basolateral and, to lesser extent, at apical surface.

[6] = system: WT and DNase I KO mice; experiment: Intravital imaging of endonuclease activity in kidneys
Text: At the next step, WT and DNase I KO mice were anesthetized and intravenously administered with 50 nmol/kg of AB259.3 probe followed by intravital imaging using Xenogen-IVIS.
To additionally confirm preferential accumulation and processing of AB259.3 probe in kidneys, separate set of mice was deeply anesthetized and subjected to abdominal incision and real-time intravital visualization of left kidney while performing intravenous injection of AB259.3 probe. […] For this, DNase I KO animals were subjected to open surgery that was used to administer 5 μl DNase I (0.1 mg/ml) to subcapsular space of upper ventral zone of left kidney. To control effect of DNase I, additional WT and DNase I KO mice were injected with same volume of the vehicle. Immediately after injection, mice were injected with 50 nmol/kg of AB259.3 probe intravenously and then imaged in a Xenogen-IVIS.
Male DNase I KO mice and their WT counterparts at the age 8-10 weeks were used for all experiments. All procedures with mice were performed under general anesthesia with 50 mg/kg ketamine. For subcutaneous administration, mice were injected with 10 μl of 0.1 μM AB259.3 in the dorsal subcutaneous site. For systemic visualization, AB259.3 was injected intravenously at 50 nmol/kg in tail vein.
Imaging of live and euthanized mice or their isolated organs were performed using Xenogen IVIS Image System 200 (Caliper Life Sciences, Hopkinton, Mass.) equipped with Living Image® Software.

[7] = system: WT and DNase I KO mice; experiment: Intravital assessment in other organs (bilateral kidney ligation or cationic liposomes); settings: imaging 3 hours after injection; FIGS. 10A and 10B
Protocol: To check an ability of probe to measure endonuclease activity on other organs, the renal distribution of AB259.3 probe was challenged by two complementary approaches. First group of mice was subjected to bilateral kidney ligation followed by intravital administration of AB259.3 probe and imaging in 3 hours after injection. […] Another group of mice was injected with AB259.3 probe packed in cationic liposomes in attempt to make probe delivery bioavailable to all organs and tissues and less specific to kidneys.
Male DNase I KO mice and their WT counterparts at the age 8-10 weeks were used for all experiments. All procedures with mice were performed under general anesthesia with 50 mg/kg ketamine. For subcutaneous administration, mice were injected with 10 μl of 0.1 μM AB259.3 in the dorsal subcutaneous site. For systemic visualization, AB259.3 was injected intravenously at 50 nmol/kg in tail vein. […] Bilateral kidney ligation was performed on anesthetized DNase I KO or WT mice. Renal pedicles were surgically ligated using 4.0 silk sutures. […]
Imaging of live and euthanized mice or their isolated organs were performed using Xenogen IVIS Image System 200 (Caliper Life Sciences, Hopkinton, Mass.) equipped with Living Image® Software. […] Quantification of the manually designated areas was performed based on average radiant efficiency with the fixed min-max dynamic range.

**Q.** With “[Cy5.5]AACACTCCGATGAGTGTAGAATGT[Cy5.5] (DNA, 5' {Cy5.5}, 3' {Cy5.5}, backbone not given here) [AB259.3]” as the substance, how does the “gain of fluorescence on alkaline denaturing” value [1] read?
**A.** 81%

**Q.** What about the “time to plateau of fluorescence after transfection” value [2] of the same substance?
**A.** 1 h

**Q.** And the “increase of fluorescence in cells after transfection” value ([2]; FIG. 4A)?
**A.** 2.5-3 times

**Q.** What about the “time to plateau of fluorescence” value [3] of the same substance?
**A.** 2 to 3 min

**Q.** What about the “increase of Cy5.5 fluorescence compared to starting point” value ([3]; 10 min, FIGS. 5A and 5B) of the same substance?
**A.** 2.5 times

**Q.** And the “organ fluorescence after injection (in words)” value [4]?
**A.** kidneys appeared to be the most visibly distinctive organ

**Q.** What about the “renal localisation of activated probe at 1 hour” value ([5]; 1 hour) of the same substance?
**A.** cortical compartment, and mainly proximal tubules already contained significant amount of activated AB259.3 probe

**Q.** What about the “renal localisation of activated probe at 3 hours” value ([5]; 3 hours, FIG. 8) of the same substance?
**A.** started to appear in medullar compartment and distal tubules

**Q.** What about the “time to plateau of fluorescence in kidneys, intravital imaging” value ([6]; 50 nmol/kg intravenous, FIGS. 7A and 7B) of the same substance?
**A.** 10 min

**Q.** And the “retention of fluorescence by kidneys” value ([6]; 50 nmol/kg intravenous, FIGS. 7C and 7D)?
**A.** at least 5 hours

**Q.** What about the “time to plateau of Cy5.5 fluorescence in exposed left kidney, real-time” value ([6]; abdominal incision, intravenous injection, FIG. 7E) of the same substance?
**A.** 10 min

**Q.** What about the “probe accumulation after bilateral kidney ligation” value [7] of the same substance?
**A.** accumulation in kidneys was completely abolished
